Measurements published in patent US20110053919A1, “Active Compound Combinations Having Insecticidal and Acaricidal Properties” (BAYER CROPSCIENE AG, priority 2006, published 2011).

Assays:
Type in all cases: in vivo
[1] = system: larvae of the army worm (Spodoptera frugiperda); experiment: Spodoptera frugiperda larvae test (sprayed cabbage leaves); conditions: single active compound
Excerpt: (§1) The expected action for a given combination of two active compounds can be calculated as follows, according to S. R. Colby, Weeds 15 (1967), 20-22:
(§2) • X is the kill rate, expressed as a percentage of the untreated control, when employing active compound A at an application rate of m g/ha or in a concentration of m ppm, • Y is the kill rate, expressed as a percentage of the untreated control, when employing active compound B at an application rate of n g/ha or in a concentration of n ppm and • E is the kill rate, expressed as a percentage of the untreated control, when employing active compounds A and B at application rates of m and n g/ha or in a concentration of m and n ppm, then
(§3) If the actual kill rate exceeds the calculated value, the kill of the combination is superadditive, i.e. a synergistic effect is present. In this case, the actually observed kill rate must exceed the value calculated using the above formula for the expected kill rate (E).
Spodoptera frugiperda Larvae Test
(§4) Solvents: 78 parts by weight of acetone • • 1.5 parts by weight of dimethylformamide Emulsifier: 0.5 part by weight of alkylaryl polyglycol ether
(§5) To produce a suitable preparation of active compound, 1 part by weight of active compound is mixed with the stated amounts of solvents and emulsifier, and the concentrate is diluted with emulsifier-containing water to the desired concentration.
Cabbage leaves (Brassica oleracea) are treated by spraying with the active compound preparation of the desired concentration and are populated with larvae of the army worm (Spodoptera frugiperda) while the leaves are still moist.
After the desired period of time, the kill in % is determined. 100% means that all caterpillars have been killed; 0% means that none of the caterpillars have been killed. The kill rates determined are entered into Colby's formula.

[2] = system: greenhouse red spider mite (Tetranychus urticae); experiment: Tetranychus test, OP-resistant/spray treatment (bean leaf disks); conditions: 0.16 g/ha, single active compound
Excerpt: as §1, §2, §3
OP-Resistant/Spray Treatment
as §4, §5
Disks of bean leaves (Phaseolus vulgaris) which are infested by all stages of the greenhouse red spider mite (Tetranychus urticae) are sprayed with an active compound preparation of the desired concentration.
After the desired period of time, the activity in % is determined. 100% means that all spider mites have been killed; 0% means that none of the spider mites have been killed.

[3] = system: larvae of the mustard beetle (Phaedon cochleariae); experiment: Phaedon cochleariae larvae test (sprayed cabbage leaves); conditions: 100 g/ha, single active compound
Excerpt: as §1, §2, §3
Phaedon cochleariae Larvae Test
as §4, §5
Cabbage leaves (Brassica oleracea) are treated by spraying with the active compound preparation of the desired concentration and are populated with larvae of the mustard beetle (Phaedon cochleariae) while the leaves are still moist.
After the desired period of time, the kill in % is determined. 100% means that all beetle larvae have been killed; 0% means that none of the beetle larvae have been killed. The kill rates determined are entered into Colby's formula.

[4] = system: green peach aphid (Myzus persicae); experiment: Myzus persicae test (spray treatment of infested cabbage leaves); conditions: single active compound
Excerpt: as §1, §2, §3, §4, §5
Cabbage leaves (Brassica oleracea) which are heavily infested by the green peach aphid (Myzus persicae) are treated by spraying with the active compound preparation of the desired concentration.
After the desired period of time, the kill in % is determined. 100% means that all aphids have been killed; 0% means that none of the aphids have been killed. The kill rates determined are entered into Colby's formula.

SMILES | Kill in % after 2d ([1]; 20 g/ha) [%] | Kill in % after 6d [2] [%] | Kill in % after 2d [3] [%] | Kill in % after 1d ([4]; 0.8 g/ha) [%] | Kill in % after 1d ([4]; 4 g/ha) [%] | Kill in % after 1d ([4]; 20 g/ha) [%] | Kill in % after 1d ([4]; 100 g/ha) [%] | Kill in % after 2d ([1]; 100 g/ha) [%]
Cc1ccc(/N=C/N(C)/C=N/c2ccc(C)cc2C)c(C)c1 [amitraz] | 0 | 0 |  |  |  |  |  | 
CC(C)N1C(=O)N(c2ccccc2)CS/C1=N\C(C)(C)C [buprofezin] |  |  | 0 |  |  |  |  | 
CCOC(=O)OC1=C(c2cc(C)ccc2C)C(=O)N[C@]12CC[C@@H](OC)CC2 [compound (II)] | 17 | 10 | 0 | 0 | 0 | 0 |  | 
CCOC(=O)OC1=C(c2cc(C)ccc2C)C(=O)NC12CCC(OC)CC2 (centres unmarked) [compound (IIa)] | 17 | 10 | 0 | 0 | 0 | 0 |  | 
N#CCNC(=O)c1cnccc1C(F)(F)F [flonicamid] |  |  | 0 |  |  |  | 30 | 
CC1=NNC(=O)N(/N=C/c2cccnc2)C1 [pymetrozine] |  |  |  | 40 |  |  |  | 
CC(COc1ccc(Oc2ccccc2)cc1)Oc1ccccn1 (centres unmarked) [pyriproxifen, pyriproxyfen] |  |  |  |  |  |  | 0 | 0
